Results reported in patent US20070128217A1 (priority 2003, published 2007).

Legend:
[1] = tested on: control sera (pooled serum of ten healthy LUMC hospital workers; commercial negative donor pooled serum from the Dutch bloodbank); format: binding, human; set-up: Binding of Control serum LUMC to linear peptides / Binding of Control serum Blood-bank to linear peptides / Binding of Control serum LUMC to looped peptides / Binding of Control Serum Blood-Bank to Looped peptides / Binding of Control serum LUMC to linear peptides of the protein M of SARS-CoV Urbani / Binding of Control serum Blood-bank to linear peptides of the protein M of SARS-CoV Urbani / Binding of Control serum LUMC to looped peptides of the protein M of SARS-CoV Urbani / Binding of Control Serum Blood-Bank to Looped peptides of the protein M of SARS-CoV Urbani: unit not given here
[2] = tested on: antibodies in sera from SARS patients (sera 1a, 1b, 2, 6, 37, 62, London, SARS-yellow, SARS-green); format: binding, human; set-up: Binding of serum 6 to linear peptides of protein X1 of SARS-CoV Urbani / Binding of serum 37 to linear peptides of protein X1 of SARS-CoV Urbani / Binding of serum 6 to looped/cyclic peptide (PEPSCAN-ELISA) / Binding of serum 37 to looped/cyclic peptide (PEPSCAN-ELISA) / Binding of serum 37 to looped/cyclic peptides of protein X1 of SARS-CoV Urbani / Binding of serum 6 to linear peptides of protein X2 / Binding of serum 37 to linear peptides of protein X2 / Binding of serum 37 to looped/cyclic peptides of protein X2 of SARS-CoV Urbani / Binding of serum 6 to linear peptides of protein M of SARS-CoV Urbani / Binding of serum 37 to linear peptides of protein M of SARS-CoV Urbani / Binding of serum 6 to looped/cyclic peptides of protein M of SARS-CoV Urbani / Binding of serum 37 to looped/cyclic peptides of protein M of SARS-CoV Urbani / Binding of serum 6 to linear peptides of protein X3 of SARS-CoV Urbani / Binding of serum 37 to linear peptides of protein X3 of SARS-CoV Urbani / Binding of serum 37 to looped/cyclic peptides of protein X3 of SARS-CoV Urbani / Binding of serum 6 to linear peptides of protein X4 of SARS-CoV Urbani / Binding of serum 37 to linear peptides of protein X4 of SARS-CoV Urbani / Binding of serum 37 to looped/cyclic peptides of protein X4 of SARS-CoV Urbani / Binding of serum 6 to linear peptides of protein X5 of SARS-CoV Urbani / Binding of serum 37 to linear peptides of protein X5 of SARS-CoV Urbani / Binding of serum 37 to looped/cyclic peptides of protein X5 of SARS-CoV Urbani / Binding of serum 6 to linear peptides of protein N of SARS-CoV Urbani / Binding of serum 37 to linear peptides of protein N of SARS-CoV Urbani / Binding of serum 6 to linear peptide (PEPSCAN-ELISA) / Binding of serum 1a to looped/cyclic peptides of protein N of SARS-CoV Urbani / Binding of serum 1b to looped/cyclic peptides of protein N of SARS-CoV Urbani / Binding of serum 2 to looped/cyclic peptides of protein N of SARS-CoV Urbani / Binding of serum 6 to looped/cyclic peptides of protein N of SARS-CoV Urbani / Binding of serum 37 to looped/cyclic peptides of protein N of SARS-CoV Urbani / Binding of serum 62 to looped/cyclic peptides of protein N of SARS-CoV Urbani / Binding of serum London to looped/cyclic peptides of protein N of SARS-CoV Urbani / Binding of serum SARS-green to looped/cyclic peptides of protein N of SARS-CoV Urbani: unit not given here
[3] = tested on: rabbit serum obtained by immunizing a rabbit with the SARS-CoV strain Frankfurt 1; format: binding; set-up: Binding of a rabbit serum to linear peptides / Binding of a rabbit serum to looped peptides / Rabbit serum linear peptides / Rabbit serum looped peptides / Binding of a rabbit serum to linear peptides of protein N of SARS-CoV Urbani (Rabbit serum linear peptides) / Binding of a rabbit serum to looped/cyclic peptides of protein N of SARS-CoV Urbani (Rabbit serum looped peptides): unit not given here
[4] = tested on: recombinant human anti-SARS-CoV antibody 03-018; format: binding; set-up: Binding of antibody 03-018 to linear peptides of the N protein of SARS-CoV Urbani / Binding of antibody 03-018 to looped/cyclic peptides of the N protein of SARS-CoV Urbani: unit not given here

| Sequence | Binding of Control Serum Blood-Bank to Looped peptides [1] | Binding of Control serum Blood-bank to linear peptides [1] | Binding of Control serum LUMC to linear peptides [1] | Binding of Control serum LUMC to looped peptides [1] | Binding of serum 1a to linear peptide (PEPSCAN-ELISA) [2] | Binding of serum 1a to looped/cyclic peptides of protein N of SARS-CoV Urbani [2] | Binding of serum 1b to linear peptide (PEPSCAN-ELISA) [2] | Binding of serum 1b to looped/cyclic peptides of protein N of SARS-CoV Urbani [2] | Binding of serum 2 to linear peptide (PEPSCAN-ELISA) [2] | Binding of serum 2 to looped/cyclic peptides of protein N of SARS-CoV Urbani [2] | Binding of serum 6 to looped/cyclic peptides of protein N of SARS-CoV Urbani [2] | Binding of serum 37 to looped/cyclic peptides of protein N of SARS-CoV Urbani [2] | Binding of serum 62 to looped/cyclic peptides of protein N of SARS-CoV Urbani [2] | Binding of serum London to looped/cyclic peptides of protein N of SARS-CoV Urbani [2] | Binding of serum SARS-green to looped/cyclic peptides of protein N of SARS-CoV Urbani [2] | Binding of serum SARS-yellow to looped/cyclic peptides of protein N of SARS-CoV Urbani [2] | Binding of antibody 03-018 to linear peptides of the N protein of SARS-CoV Urbani [4] | Binding of antibody 03-018 to looped/cyclic peptides of the N protein of SARS-CoV Urbani [4] | Binding of a rabbit serum to linear peptides of protein N of SARS-CoV Urbani (Rabbit serum linear peptides) [3] | Binding of a rabbit serum to looped/cyclic peptides of protein N of SARS-CoV Urbani (Rabbit serum looped peptides) [3] | further results |
| --- | --- | --- | --- | --- | --- | --- | --- | --- | --- | --- | --- | --- | --- | --- | --- | --- | --- | --- | --- | --- | --- |
| RNSTPGSSRGNSPAR | 0.6 | 0.9 | 0.8 | 0.7 | 0.6 | 0.4 | 0.3 | 0.3 | 0.3 | 0.4 | 0.3 | 0.5 | 0.5 | 0.5 | 0.1 | 0.5 | 0.1 | 0.2 | – | – | Binding of serum 6 to linear peptide (PEPSCAN-ELISA) [2]: 0.2; Binding of serum 37 to linear peptide (PEPSCAN-ELISA) [2]: 0.7; Binding of serum 62 to linear peptide (PEPSCAN-ELISA) [2]: 0.7; Binding of serum London to linear peptide (PEPSCAN-ELISA) [2]: 0.4; Binding of serum SARS-green to linear peptide (PEPSCAN-ELISA) [2]: 0.4; Binding of serum SARS-yellow to linear peptide (PEPSCAN-ELISA) [2]: 0.7; Recognition of the peptide by the rabbit serum [3]: recognized |
| QLQNSMSGASADSTQ | – | – | – | – | – | 0.3 | – | 0.1 | – | 0.4 | 0.1 | 0.4 | 0.1 | 0.3 | 0.1 | 0.1 | 0.1 | 0.2 | 0.7 | 0.5 | Control Serum Blood-Bank Looped peptides [1]: 0.5; Control serum Blood-bank linear peptides [1]: 0.8; Control serum LUMC linear peptides [1]: 0.6; Control serum LUMC looped peptides [1]: 0.4; Binding of serum 1a to linear peptides of protein N of SARS-CoV Urbani [2]: 0.2; Binding of serum 1b to linear peptides of protein N of SARS-CoV Urbani [2]: 0.1; Binding of serum 2 to linear peptides of protein N of SARS-CoV Urbani [2]: 0.2; Binding of serum 6 to linear peptides of protein N of SARS-CoV Urbani [2]: 0.1; Binding of serum 37 to linear peptides of protein N of SARS-CoV Urbani [2]: 0.7; Binding of serum 62 to linear peptides of protein N of SARS-CoV Urbani [2]: 0.5; Binding of serum London to linear peptides of protein N of SARS-CoV Urbani [2]: 0.6; Binding of serum SARS-green to linear peptides of protein N of SARS-CoV Urbani [2]: 0.3; Binding of serum SARS-yellow to linear peptides of protein N of SARS-CoV Urbani [2]: 0.6 |
| GTWLTYHGAIKLDDK | – | – | – | – | – | 0.2 | – | 0.1 | – | 0.2 | 0.1 | 0.4 | 0.3 | 0.3 | 0.1 | 0.5 | 0.1 | 0.2 | 0.1 | 0.2 | Control Serum Blood-Bank Looped peptides [1]: 0.4; Control serum Blood-bank linear peptides [1]: 0.6; Control serum LUMC linear peptides [1]: 0.6; Control serum LUMC looped peptides [1]: 0.4; Binding of serum 1a to linear peptides of protein N of SARS-CoV Urbani [2]: 0.2; Binding of serum 1b to linear peptides of protein N of SARS-CoV Urbani [2]: 0.1; Binding of serum 2 to linear peptides of protein N of SARS-CoV Urbani [2]: 0.2; Binding of serum 6 to linear peptides of protein N of SARS-CoV Urbani [2]: 0.1; Binding of serum 37 to linear peptides of protein N of SARS-CoV Urbani [2]: 0.7; Binding of serum 62 to linear peptides of protein N of SARS-CoV Urbani [2]: 0.7; Binding of serum London to linear peptides of protein N of SARS-CoV Urbani [2]: 0.5; Binding of serum SARS-green to linear peptides of protein N of SARS-CoV Urbani [2]: 0.4; Binding of serum SARS-yellow to linear peptides of protein N of SARS-CoV Urbani [2]: 0.7 |
| AEASKKPRQKRTATK | 0.4 | 0.8 | 0.8 | 0.4 | 0.2 | 0.2 | 0.1 | 0.1 | 0.2 | 0.2 | 0.1 | 0.4 | 0.3 | 0.3 | 0.1 | 0.2 | 0.1 | 0.2 | 0.2 | 0.1 | Binding of serum 6 to linear peptide (PEPSCAN-ELISA) [2]: 0.3; Binding of serum 37 to linear peptide (PEPSCAN-ELISA) [2]: 0.7; Binding of serum 62 to linear peptide (PEPSCAN-ELISA) [2]: 0.7; Binding of serum London to linear peptide (PEPSCAN-ELISA) [2]: 0.4; Binding of serum SARS-green to linear peptide (PEPSCAN-ELISA) [2]: 0.4; Binding of serum SARS-yellow to linear peptide (PEPSCAN-ELISA) [2]: 0.7 |
